System: ASD patient
Assay: ABC-J aberrant behavior checklist (58 items, each rated 0 no problems to 3 marked; 5 subscales) in ASD patients before and after oral intake of test drug
Type: in vivo, human
Parameters: key to ABC-J subscale total score: Hyperactivity / ABC-J subscale total score: Inappropriate Speech: subscale total: sum of its item scores (each 0 = none to 3 = marked)
Procedure: ABC-J is an aberrant behavior checklist available in Japan, which was made by translating and standardizing the revised version of the aberrant behavior checklist developed by American psychologists Aman M. G. and Singh N. N. as a rating scale for quantitatively assessing behavioral disorders associated with intellectual disability and developmental disorder. ABC-J is composed of 58 items that represent problematic behaviors, and a subject is assessed for each item on the following four-rating scale: there are no problems (0 points); the degree of problematic behavior is mild (1 point); the degree of problematic behavior is moderate (2 points); and the degree of problematic behavior is marked (3 points). These 58 items are classified into five subscales: I. Irritability (15 items); II. Lethargy (16 items); III. Stereotypical Behavior (7 items); IV. Hyperactivity (16 items); and V. Inappropriate Speech (4 items). Assessment can be made for each subscale (Ministry of Health, Labour and Welfare, Year 2012 Total Welfare Promotion Project for People with Disabilities, Guidelines for Support for and Assessment of Children with Developmental Disabilities, Asperger Society Japan (a specified non-profit organization), March 2013). […]
An ASD patient (body weight: 45 kg) orally took the test drug detailed below every day for 8 weeks, and their symptoms of ASD were assessed by the diagnostic method described below before (before the start of administration) and 8 weeks after the intake of the drug (8 weeks after the start of administration).
The symptoms of ASD of the ASD patient were assessed based on the scores of ABC-J, PARS-TR, and RSB-R (Japanese version) by a medical doctor who is a researcher of ASD. […]

[1] = case 1, 600 mg/day oral + fursultiamine 25 mg/day, 1 month after start, before administration: 0
[2] = case 1, 600 mg/day oral + fursultiamine 25 mg/day, 1 month after start, before administration: 1
[3] = case 1, 600 mg/day oral + fursultiamine 25 mg/day, 1 month after start, before administration: 2
[4] = case 1, 600 mg/day oral + fursultiamine 25 mg/day, 1 month after start, before administration: 3
[5] = case 2, 600 mg/day oral + fursultiamine 25 mg/day, 17 days after start, before administration: 0
[6] = case 2, 600 mg/day oral + fursultiamine 25 mg/day, 17 days after start, before administration: 1
[7] = case 2, 600 mg/day oral + fursultiamine 25 mg/day, 17 days after start, before administration: 2
[8] = case 2, 600 mg/day oral + fursultiamine 25 mg/day, 17 days after start, before administration: 4
[9] = case 4, 800 mg/day oral + fursultiamine 25 mg/day, 8 weeks

**Q.** What does the source list for Cc1ncc(CO)c(CN)c1O.Cl.Cl [pyridoxamine dihydrochloride]?
**A.** ABC-J symptoms across the 5 subscales I to V compared with before taking the drug (case 1, 600 mg/day oral + fursultiamine 25 mg/day, 1 month): significant improvement in symptoms; ABC-J item 2 score (Irritability) [1]: 0; ABC-J item 3 score (Lethargy) [1]: 0; ABC-J item 4 score (Irritability) [1]: 1; ABC-J item 5 score (Lethargy) [1]: 0; ABC-J item 9 score (Inappropriate Speech) [1]: 0; ABC-J item 13 score (Hyperactivity) [1]: 0; ABC-J item 16 score (Lethargy) [1]: 0; ABC-J item 32 score (Lethargy) [1]: 1; ABC-J item 33 score (Inappropriate Speech) [1]: 0; ABC-J item 34 score (Irritability) [1]: 0; ABC-J item 42 score (Lethargy) [1]: 0; ABC-J item 47 score (Irritability) [1]: 0; ABC-J item 50 score (Irritability) [1]: 0; ABC-J item 52 score (Irritability) [1]: 0; ABC-J item 53 score (Lethargy) [1]: 0; ABC-J item 54 score (Hyperactivity) [1]: 0; ABC-J item 55 score (Lethargy) [1]: 0; ABC-J item 56 score (Hyperactivity) [1]: 0; ABC-J item 8 score (Irritability) [2]: 0; ABC-J item 12 score (Lethargy) [2]: 1; ABC-J item 17 score (Stereotypical Behavior) [2]: 0; ABC-J item 18 score (Hyperactivity) [2]: 0; ABC-J item 19 score (Irritability) [2]: 0; ABC-J item 20 score (Lethargy) [2]: 1; ABC-J item 21 score (Hyperactivity) [2]: 0; ABC-J item 24 score (Hyperactivity) [2]: 0; ABC-J item 25 score (Irritability) [2]: 0; ABC-J item 26 score (Lethargy) [2]: 0; ABC-J item 28 score (Hyperactivity) [2]: 0; ABC-J item 29 score (Irritability) [2]: 0; ABC-J item 30 score (Lethargy) [2]: 0; ABC-J item 31 score (Hyperactivity) [2]: 0; ABC-J item 36 score (Irritability) [2]: 0; ABC-J item 37 score (Lethargy) [2]: 0; ABC-J item 40 score (Lethargy) [2]: 1; ABC-J item 41 score (Irritability) [2]: 0; ABC-J item 43 score (Lethargy) [2]: 0; ABC-J item 46 score (Inappropriate Speech) [2]: 0; ABC-J item 48 score (Hyperactivity) [2]: 1; ABC-J item 51 score (Hyperactivity) [2]: 0; ABC-J item 57 score (Irritability) [2]: 0; ABC-J item 58 score (Lethargy) [2]: 1; ABC-J item 1 score (Hyperactivity) [3]: 1; ABC-J item 7 score (Hyperactivity) [3]: 0; ABC-J item 10 score (Irritability) [3]: 0; ABC-J item 14 score (Irritability) [3]: 0; ABC-J item 15 score (Hyperactivity) [3]: 1; ABC-J item 22 score (Inappropriate Speech) [3]: 1; ABC-J item 23 score (Lethargy) [3]: 1; ABC-J item 27 score (Stereotypical Behavior) [3]: 1; ABC-J item 35 score (Stereotypical Behavior) [3]: 1; ABC-J item 38 score (Hyperactivity) [3]: 1; ABC-J item 39 score (Hyperactivity) [3]: 0; ABC-J item 44 score (Hyperactivity) [3]: 0; ABC-J item 45 score (Stereotypical Behavior) [3]: 1; ABC-J item 49 score (Stereotypical Behavior) [3]: 1; ABC-J item 6 score (Stereotypical Behavior) [4]: 1; ABC-J item 11 score (Stereotypical Behavior) [4]: 1; ABC-J subscale total score: Inappropriate Speech [4]: 1; ABC-J subscale total score: Lethargy (case 1, 600 mg/day oral + fursultiamine 25 mg/day, 1 month after start, before administration: 10): 6; ABC-J subscale total score: Irritability (case 1, 600 mg/day oral + fursultiamine 25 mg/day, 1 month after start, before administration: 11): 1; ABC-J subscale total score: Stereotypical Behavior (case 1, 600 mg/day oral + fursultiamine 25 mg/day, 1 month after start, before administration: 15): 6; ABC-J subscale total score: Hyperactivity (case 1, 600 mg/day oral + fursultiamine 25 mg/day, 1 month after start, before administration: 19): 4; ABC-J symptoms across all of the 5 subscales I to V (case 2, 600 mg/day oral + fursultiamine 25 mg/day, 17 days): significantly improved symptoms; ABC-J item 2 score (Irritability) [5]: 0; ABC-J item 7 score (Hyperactivity) [5]: 0; ABC-J item 8 score (Irritability) [5]: 0; ABC-J item 9 score (Inappropriate Speech) [5]: 0; ABC-J item 11 score (Stereotypical Behavior) [5]: 0; ABC-J item 13 score (Hyperactivity) [5]: 0; ABC-J item 17 score (Stereotypical Behavior) [5]: 0; ABC-J item 18 score (Hyperactivity) [5]: 0; ABC-J item 19 score (Irritability) [5]: 0; ABC-J item 27 score (Stereotypical Behavior) [5]: 0; ABC-J item 28 score (Hyperactivity) [5]: 0; ABC-J item 29 score (Irritability) [5]: 0; ABC-J item 31 score (Hyperactivity) [5]: 0; ABC-J item 32 score (Lethargy) [5]: 0; ABC-J item 33 score (Inappropriate Speech) [5]: 0; ABC-J item 34 score (Irritability) [5]: 0; ABC-J item 36 score (Irritability) [5]: 0; ABC-J item 38 score (Hyperactivity) [5]: 0; ABC-J item 39 score (Hyperactivity) [5]: 0; ABC-J item 41 score (Irritability) [5]: 0; ABC-J item 44 score (Hyperactivity) [5]: 0; ABC-J item 47 score (Irritability) [5]: 0; ABC-J item 48 score (Hyperactivity) [5]: 0; ABC-J item 49 score (Stereotypical Behavior) [5]: 0; ABC-J item 50 score (Irritability) [5]: 0; ABC-J item 51 score (Hyperactivity) [5]: 0; ABC-J item 52 score (Irritability) [5]: 0; ABC-J item 53 score (Lethargy) [5]: 0; ABC-J item 54 score (Hyperactivity) [5]: 0; ABC-J item 55 score (Lethargy) [5]: 0; ABC-J item 56 score (Hyperactivity) [5]: 0; ABC-J item 57 score (Irritability) [5]: 0; ABC-J item 1 score (Hyperactivity) [6]: 1; ABC-J item 4 score (Irritability) [6]: 0; ABC-J item 10 score (Irritability) [6]: 0; ABC-J item 12 score (Lethargy) [6]: 0; ABC-J item 15 score (Hyperactivity) [6]: 1; ABC-J item 20 score (Lethargy) [6]: 0; ABC-J item 21 score (Hyperactivity) [6]: 0; ABC-J item 23 score (Lethargy) [6]: 0; ABC-J item 24 score (Hyperactivity) [6]: 0; ABC-J item 26 score (Lethargy) [6]: 1; ABC-J item 30 score (Lethargy) [6]: 0; ABC-J item 35 score (Stereotypical Behavior) [6]: 0; ABC-J item 37 score (Lethargy) [6]: 0; ABC-J item 40 score (Lethargy) [6]: 0; ABC-J item 43 score (Lethargy) [6]: 0; ABC-J item 58 score (Lethargy) [6]: 0; ABC-J item 3 score (Lethargy) [7]: 0; ABC-J item 5 score (Lethargy) [7]: 1; ABC-J item 6 score (Stereotypical Behavior) [7]: 1; ABC-J item 14 score (Irritability) [7]: 0; ABC-J item 16 score (Lethargy) [7]: 1; ABC-J item 22 score (Inappropriate Speech) [7]: 1; ABC-J item 25 score (Irritability) [7]: 0; ABC-J item 45 score (Stereotypical Behavior) [7]: 1; ABC-J item 46 score (Inappropriate Speech) [7]: 1; ABC-J item 42 score (Lethargy) (case 2, 600 mg/day oral + fursultiamine 25 mg/day, 17 days after start, before administration: 3): 2; ABC-J subscale total score: Hyperactivity [8]: 2; ABC-J subscale total score: Inappropriate Speech [8]: 2; ABC-J subscale total score: Stereotypical Behavior (case 2, 600 mg/day oral + fursultiamine 25 mg/day, 17 days after start, before administration: 5): 2; ABC-J subscale total score: Irritability (case 2, 600 mg/day oral + fursultiamine 25 mg/day, 17 days after start, before administration: 6): 0; ABC-J subscale total score: Lethargy (case 2, 600 mg/day oral + fursultiamine 25 mg/day, 17 days after start, before administration: 18): 5; total score of all ABC-J items compared with before administration (case 3, 800 mg/day oral + fursultiamine 25 mg/day, 8 weeks, FIG. 7A): decreased; ABC-J total score of each of the 5 subscales compared with before administration (case 3, 800 mg/day oral + fursultiamine 25 mg/day, 8 weeks, FIG. 7B): decreased; total score of all items of ABC-J compared with before administration (case 4 (no speech), 800 mg/day oral + fursultiamine 25 mg/day, 8 weeks, FIG. 9A): decreased; severity of irritability and self-harming behavior [9]: alleviated the severity; stereotypical behaviors (DSM-5 diagnostic criteria B(1)) [9]: significantly improved; ABC-J subtotal score of the four subscales compared with before administration (case 4, 800 mg/day oral + fursultiamine 25 mg/day, 8 weeks, Inappropriate Speech zero because no speech, FIG. 9B): decreased
